This assay relates to LTB4 production in HL-60 cells. As to the kind of experiment: A23187-Induced LTB4 Production in Human Promyelocytic Leukemia HL-60 Cells (HL-60 Cell Assay). It counts as cell-based. Particulars: for inhibition at 100 µM: 10^-4 M; for inhibition at 10 µM: 10^-5 M; for IC50: A23187-stimulated differentiated HL-60 cells, 10 minutes preincubation at 37° C. The text has this:
A23187-Induced LTB4 Production in Human Promyelocytic Leukemia HL-60 Cells.
Calcium ionophore A23187 was obtained from Calbiochem (La Jolla, CA). Trans-stilbene oxide was obtained from Sigma (St. Louis, MO). Hanks' balanced salt solution (HBSS) (10X concentrate), 1 M Hepes, and Dulbecco's modified Eagle medium were obtained from GIBCO Laboratories (Grand Island, NY). Fetal bovine serum was obtained from HyClone Laboratories (Logan, UT) The LTB4 and PGE2 radioimmunoassay antibodies were purchased from Amersham International plc (Amersham, UK) and NEN Research Products (N. Billerica, MA), respectively. Reagents for assay of lactate dehydrogenase (LDH) activity were purchased from Beckman (Carlsbad, CA).
Preparation of HL 60 Cells:
HL-60 cells were cultured in Dulbecco's modified Eagle medium (supplementedwith 20% fetal bovine serum, 20 mM Hepes, 100 U/ml penicillin and 100 mcg/ml streptomycin) and maintained at 37° C. in a humidified atmosphere of 5% CO2 in air. Cells from exponentially growing cultures were seeded at 3×10^5 cells/ml and induced to differentiate into granulocyte with 0.8% (v/v) N,N dimethylformamide for 4 days (1,2). Prior to assay, differentiated HL-60 cells were washed once with Hanks' balanced salt solution containing 0.35 mg/ml sodium bicarbonate and 10 mM Hepes, pH 7.3 (HBSS) and resuspended in HBSS at a concentration of 3×10^6 cells/ml.
DMSO or test compounds as 100× concentrates in DMSO were added in duplicate to 1.0 ml HL-60 cell suspensions (3×10^6 cells) and preincubated at 37° C. for 10 minutes in a shaking water bath. After an additional 5 minute incubation with calcium ionophore A23187 (10 mcl @ 5×10^-4 M in DMSO), the cells were pelleted at 12,800×g for 15 seconds and the supernatant removed and stored at […] for quantification of LTB4 or PGE2 via radioimmunoassay and LDH activity.
LTB4 and PGE2 data were expressed as percent inhibition of A23187-stimulated controls. For IC50 determinations, the 4 parameter logistic model was used where y is the percent inhibition response and×is the log10 concentration of the inhibitor: [formula] Nonlinear regression was performed using the SAS (3) procedure NLIN to obtain least squares estimates of the four parameters in the above equation: y.infin. (maximum), Y0 (minimum), a (log10 IC50) and b (slope factor). Increases in mean LDH levels for A23187-stimulated cells in the presence of test compound were tested for significance using a one tailed two sample Student's t-test.

Counter-ions that a name gives are not always drawn.

The inhibition is the drop in the measured response relative to a control, in per cent. Low readings indicate a weak effect, high ones a strong effect. In general, IC50 refers to the point on the concentration scale where inhibition reaches its midpoint. High values mean a need for much substance, low ones inhibition by little substance.

In the case of `CCCCCCCCCC/C=C/C=C/C1OCC(CCCC(=O)O)O1` (racemic) [Example 5B (Racemic Mixture), 2-Tetradeca-1E,3E-dienyl-1,3-dixolane-4-butanoic acid, lithium salt], half-maximal inhibition (IC50) was put at 6.8 µM. For the setting “A23187-stimulated HL-60 cells”, this compound registered an inhibition at 100 µM of 96% and an inhibition at 10 µM of 80%.

The compound `CCCCCCCCCC/C=C/C=C/C1OCC(c2cccc(C(=O)O)c2)O1` (racemic) [Example 7B (Racemic Mixture), 3-(2-Tetradeca-1E,3E-dienyl-1,3-dioxolan-4-yl)benzoic acid, lithium salt] had a concentration for half-maximal inhibition (IC50) of 2.5 µM. Also, where the note is “A23187-stimulated HL-60 cells”, at 100 µM the inhibition was 89% and 10 µM produced 91% inhibition. The same compound returned an inhibition at 1 µM (10^-6 M, A23187-stimulated HL-60 cells) of 21%.

Compound `CCCCCCC/C=C/C=C/C1OCC(CCCC(=O)O)O1` (racemic) [Example 8B, (±) 2-Undeca-1E,3E-dienyl-1,3-dioxolane-4-butanoic acid, lithium salt] returned an inhibition at 100 µM (A23187-stimulated HL-60 cells) of 84%.

For `CCCCCCCCCC/C=C/C=C/C1OCC(CCCC(=O)O)O1` (single isomer, unassigned) [Example 5B (Single Diastereomer), 2-Tetradeca-1E,3E-dienyl-1,3-dixolane-4-butanoic acid, lithium salt], the IC50 was 7.2 µM. Also, where the note is “A23187-stimulated HL-60 cells”, the inhibition at 100 µM was determined as 91% and the inhibition at 10 µM was found to be 77%.

On to `CCCCCCCCCC/C=C/C=C/C1OCC(c2cccc(C(=O)[O-])c2)O1.[Li+]` (single isomer, unassigned) [Example 7B (Single diastereomer), 3-(2-Tetradeca-1E,3E-dienyl-1,3-dioxolan-4-yl)benzoic acid, lithium salt], for which the IC50 was determined as 3.6 µM. For the same compound, where the note is “A23187-stimulated HL-60 cells”, the inhibition at 100 µM was 92% and the inhibition at 10 µM was found to be 92%.

For the origin of these results see patent US4954520A, “1,3-dioxolane derivatives useful in the treatment of inflammation” (G. D. Searle & Co., priority 1989, dated 1990).
